US20070238761A1, “Use of pyridoxamine to treat and/or prevent disease processes” (Vanderbilt University, priority 2005, published 2007)

What was measured:
[1] = system: Human glomerular visceral epithelial cells (podocytes); experiment: Cisplatin-induced podocyte cell death, viability by Rapid Cell Proliferation Kit; format: cell-based; details: 22 hours of treatment; RPMI medium with 1% FBS; FIG. 4
Protocol: Human glomerular visceral epithelial cells (podocytes) were plated at 8,000 cells/well (96-well plate) and incubated for 24 hours in RPMI medium supplemented with 1% FBS. Following this incubation cells were treated as indicated without changing the medium. The treatment continued for 22 hours and cell viability was measured using Rapid Cell Proliferation Kit (CALBIOCHEM®), a unit of EMD Biosciences, Inc. San Diego, Calif., United States of America).

diabetic rat model = details: similar or higher PM doses than 180 mg/day/kg body wt.; long-term; Degenhardt et al. 2002, Stitt et al. 2002; cited from earlier work
[2] = system: urinary oxalate excretion; experiment: Ethylene glycol rat model of experimental hyperoxaluria with PM in drinking water; format: in vivo, Sprague-Dawley male rats
Protocol: FIGS. 6A and 6B are graphs depicting the effect of PM treatment on urinary oxalate excretion in animals with experimental hyperoxalura. Sprague-Dawley male rats (49-52 days old) were randomized on Day 1 to receive either ethylene glycol (0.75% v/v in drinking water (450 mg/day/kg body wt.); EG group) or no treatment (Control group). After Day 14, animals within each group were pair-matched according to their oxalate level. One member of each pair was then randomly assigned to receive PM (3 mg/ml or 180 mg/day/kg body wt.) either in drinking water (PM group) or in 0.75% ethylene glycol (EG+PM group). Urine samples were collected under toluene (to inhibit bacteria growth) in 50 ml tubes with hydrochloric acid to minimize spontaneous breakdown of urinary ascorbic acid to oxalate. Urinary oxalate was measured as described under Methods. Each symbol represents mean value±S.E. (n=5); at the time points indicated by asterisks, differences between the EG group and the EG+PM group were statistically significant (p<0.05). The data points on the graphs correspond to the following: ●—Control group; ▪—EG group; —PM group; ⋄—+EG+PM group.
In FIG. 6A, the results of PM given continuously starting from Day 14 are presented.
In FIG. 6B, the results for a separate experiment in which PM treatment was started on Day 14 and was discontinued on Day 28 are presented. In this experiment, the elevated levels of oxalate excretion in Control group on Day 3 are most likely related to animal adaptation. Note that the oxalate levels went down and leveled off before the beginning of PM treatment.
Ethylene glycol model of hyperoxaluria and pyridoxamine treatment. An established rat model of experimental hyperoxaluria, the ethylene glycol (EG) model (see e.g., Lyon et al. (1996) Invest Uro14:143-151; Khan (1997) World J Urol 05:236-243) was employed. […] Because ethylene glycol is converted to glycolaldehyde, an intermediate in glyoxylate pathway, its administration results in increased urinary oxalate levels (Lyon et al. (1996) Invest Urol 4:143-151; Khan (1997) World J Urol 05:236-243). […]
For uniform administration of EG and PM, water supply to all animals was limited to 45 ml/day. […] The length of treatment was determined based on the fact that after about 35 days of experimental hyperoxaluria rats may have some evidence of microscopic nephrolithiasis, but their renal function remains normal (Khan (1997) World J Urol 05:236-243). […]

[3] = system: BSA-Amadori glycation intermediate; experiment: Conversion of BSA-Amadori glycation intermediate to CML, measured with anti-CML antibody; format: biochemical; details: 0.1, 1, 15 mM PM; 200 mM sodium phosphate buffer, pH 7.5, 37° C.; FIG. 1A
Protocol: FIG. 1A is a graph depicting the conversion of Amadori intermediate to CML measured using anti-CML antibody.
Isolated BSA-Amadori glycation intermediate was formed at diabetic (30 mM) concentration of glucose. The conversion of Amadori intermediate to the AGE N^ε-carboxymethyllysine (CML) was measured using an anti-CML antibody.

[4] = system: 8-F2-isoprostane (8-iso-PGF2) in the kidney; experiment: Carbon tetrachloride rat model of oxidative stress, 8-F2-isoprostane in kidney by GC-MS; format: in vivo; details: CCl4 vs. CCl4+PM, p=0.066, not statistically significant; FIG. 5
Protocol: FIG. 5 is a plot depicting the effect of PM administration on the levels of a marker of oxidative stress (8-F2-lsoP) in the carbon tetrachloride (CCl4) rat model disclosed herein as determined by gas-chromatography/mass-spectrometry (GC-MS).
Based on the results of the in vitro experiments disclosed herein, it was hypothesized that PM might reduce oxidative stress in the kidney in vivo. This hypothesis was evaluated using the carbon tetrachloride rat model of oxidative stress (see Kadiiska et al. (2005) Free Radic Biol Med 38:698-710). The effect of PM was determined by measuring the levels of an oxidative stress marker, 8-F2-isoprostane (8-iso-PGF2) in the kidney using gas-chromatography/mass-spectrometry (see Morrow et al. (1999) Methods Enzymol 300:3-12).

[5] = Reactive PM amino groups in incubations with ethylene glycol (TNBS assay); format: physicochemical; details: 24 hours at room temperature
Protocol: Effect of pyridoxamine treatment on urinary oxalate excretion. […] With the proposed experimental design, interference between PM and ethylene glycol might have been possible because both were administered in drinking water. If significant spontaneous oxidation of ethylene glycol occurs in solution, the resulting carbonyl moieties might react with the PM amino group. To address this question, the amount of reactive PM amino groups was measured in incubations with ethylene glycol using TNBS assay (Spadaro et al. (1979) Anal Biochem 96:317-321).

[6] = system: gentamicin and glycerol rat models of ARF; experiment: Gentamicin and glycerol rat models of ARF treated with PM; format: in vivo, Sprague-Dawley rats; details: ARF+PM group compared to ARF group; PM 180 mg/day/kg body weight in drinking water
Description: The gentamicin and the glycerol rat models of ARF. There are several animal models of ARF, each having its specific advantages and limitations (see e.g., Bellomo et al. (2004) Group Crit Care 8:R204-12). Two such models are the gentamicin and the glycerol models. […] Importantly, the gentamicin and the glycerol models are highly relevant, representing two of the major clinical causes of ARF: antibiotic toxicity and rhabdomyolosis, respectively (Bellomo et al. (2004) Group Crit Care 8:R204-12). Examining the effects of PM in two different models also helps to minimize possible model-specific adverse effects.
The primary outcome measured is serum creatinine level at the end of PM treatment. […]
Two-month-old male Sprague-Dawley rats (250-300 g) are housed individually in metabolic cages. […] Animals are fed standard powdered stock ration, and their body weights are monitored daily. […]
For PM experiments, rats are randomized into 4 groups based on their baseline serum creatinine levels: (a) the Control group (no ARF is induced); (b) the PM group (no ARF is induced, but PM is given in drinking water); (c) the ARF group; and (d) the ARF+PM group. The experiment is terminated when the serum creatinine in the ARF group reaches its maximum level as determined in the model optimization studies described hereinabove. […]

collagen IV = experiment: Formation of CML on collagen IV coated plates incubated with glucose (ELISA, anti-CML antibody); format: biochemical; details: 5 mM and 30 mM glucose; 200 mM sodium phosphate buffer, pH 7.5, 37° C., 40 days; FIG. 1B
Protocol: The secondary antibody used in the assay was an alkaline phosphatase conjugated goat anti-rabbit IgG from Sigma-Aldrich Co. (St. Louis, Mo., United States of America). Incubations were carried out in 200 mM sodium phosphate buffer, pH 7.5 at 37° C. for 40 days. […]

## Cc1ncc(CO)c(CN)c1O [PM, 4-(aminomethyl)-5-(hydroxymethyl)-2-methyl-pyridin-3-ol]
[1]
  podocyte viability under cisplatin treatment: protected cell viability in a concentration-dependent manner
Diabetic rat model
  therapeutic effect: had therapeutic effects
[2]; EG+PM group vs EG group, PM 180 mg/day/kg body wt. in drinking water continuously from Day 14, FIG. 6A
  urinary oxalate excretion: dramatic and sustained decrease in urinary oxalate excretion
[2]; PM started Day 14, discontinued Day 28, FIG. 6B
  urinary oxalate excretion after PM was discontinued: increase in urinary oxalate excretion to the levels found in untreated hyperoxaluric animals
[2]; all experimental groups, duration of the experiment, PM 180 mg/day/kg body wt.
  weight gain: No significant differences in weight gain
[2]; all experimental groups, PM 180 mg/day/kg body wt.
  adverse effects: no adverse effects
[3]
  conversion of the BSA-Amadori glycation intermediate to BSA-CML: inhibited the conversion of the BSA-Amadori glycation intermediate to BSA-CML
[4]
  level of the isoprostane marker (8-F2-isoprostane) in the kidney: tendency toward lowering the level of the isoprostane marker
[5]
  change in reactive PM amino groups in incubations with ethylene glycol: No change in amino groups was detected
[6]
  Creatinine levels at the end of experiment (primary outcome): envisioned to be significantly lower
  degree of renal tubular pathology at the end of experiment (secondary outcome): envisioned to be lower
Collagen IV
  formation of CML on collagen IV: inhibited the formation of CML on collagen IV
